In article PMC9163831 (Frontiers in Microbiology, 2022):

How the values were obtained:
[1] = test system: Salmonella 26FS26 (mcr-1); experiment: Antimicrobial combination susceptibility testing (MIC, MBC, checkerboard FICI) in MH broth; type: cell-based, S. typhimurium; conditions: for MIC (in combination): colistin + IBG checkerboard
Method: (§1) The susceptibility of the selected Salmonella isolates and quality control isolate (ATCC 25922) to colistin and IBG in MH broth was investigated in accordance with the methods and quality control requirements recommended by the Clinical and Laboratory Standards Institute. Minimal inhibitory concentration (MIC) was the lowest concentration of colistin where visible bacterial growth was inhibited after 24 h of incubation. E. coli ATCC 25922 was used as the quality control strain to ensure the credibility of MICs tested. Susceptibility testing was performed in triplicate and germ-free controls (blank medium). The minimum bactericidal concentration (MBC) in MH broth was measured according to a previous report (Lei et al., [2017]). The synergistic activity between colistin and IBG, and the fractional inhibitory concentration indices (FICI) were measured by checkerboard assays, based on the MIC of each drug (MacNair et al., [2018]). In brief, 50 μL of broth was added to each well, and 50 μL of the indicated concentration of colistin was added into the first well of each line. This process was followed by multiple proportion dilution. Next, 50 μL of samples of different IBG concentrations was added to the dilution medium, and 100 μL of inoculum with a cell density of ~1 × 10^6 colony-forming units (CFU)/mL was added to each well. The FICI was calculated follows:
(§2) (1) FICI=MIC(Colistinincombination)/MIC(Colistin)+MIC(IBGincombination)/MIC(IBG).

[2] = test system: Salmonella 26FS14 (mcr-1); experiment: as above; type: cell-based, S. typhimurium; conditions: for MIC (in combination): colistin + IBG checkerboard
Method: as §1, §2

Salmonella S226 (mcr-1) = experiment: as above; type: cell-based, S. typhimurium; conditions: for MIC (in combination): colistin + IBG checkerboard
Method: as §1, §2

Salmonella S235 (mcr-1) = experiment: as above; type: cell-based, S. typhimurium; conditions: for MIC (in combination): colistin + IBG checkerboard
Method: as §1, §2

Salmonella ATCC14028 = experiment: as above; type: cell-based, S. typhimurium; conditions: for MBC / MIC: alone; for MIC (in combination): colistin + IBG checkerboard
Method: as §1, §2

[3] = design: method as in Xiao et al., [2018]; conditions: IBG supplementation; ref Xiao et al., [2018]; cited from earlier work
erythrocytes in mice = test system: erythrocytes in mice; design: method as in Zhang et al., [2019]; conditions: ref Zhang et al., [2019]; cited from earlier work
[4] = test system: human lung epithelial cells (A549); design: method as in Zhang et al., [2019]; conditions: ref Zhang et al., [2019]; cited from earlier work
[5] = test system: mcr-1-positive Salmonella; experiment: PK/PD analysis, inhibitory effect Imax model; type: in vivo, broilers
Method: PK/PD analysis was conducted using the inhibitory effect Imax model (Riviere and Toutain, [2011]). This model is described by the following equation: […]
where E is the antibacterial effect, measured as change in log10CFU/g after 24 h of treatment, compared with the initial log10CFU/g in the untreated control broiler; E0 is the difference in the number of bacteria (log10CFU/g) in control samples between time 0 and 24 h. Imax is the maximum antimicrobial growth inhibition determined as the change in log10CFU/g after 24 h treatment with colistin combined with IBG. X is the predictive variable (expressed as AUC0−24h/MIC, Cmax/MIC, and %T>MIC), and IC50 is the X value producing 50% of the maximum antibacterial effect. The relationship between efficacy and the three PK/PD indices was determined by non-linear least-squares regression in a Phoenix WinNonlin® PD model. The coefficient of determination (R^2) was used to estimate the variance caused by regression for each PK/PD index.

[6] = test system: mcr-1-positive Salmonella; experiment: MIC of colistin with and without IBG; type: cell-based
Method: as §1, with “well.” for “well. The FICI was calculated follows:”

[7] = test system: mcr-1-positive Salmonella; experiment: In vitro time-killing curves; type: cell-based
Method: After MIC determination, different concentrations of colistin were prepared in broth ranging from different doses before bacterial inoculation (10^6 CFU/mL). Growth was checked with control. The tubes containing bacteria and different concentrations of colistin and IBG were incubated at 37°C. The bacterial count (CFU/mL) was determined for each tube after 0, 1, 2, 4, 6, 8, 12, and 24 h of incubation. In brief, 100 μL of culture was obtained for each time point, and serially diluted, and the colonies were counted the next morning. Each concentration test was performed in triplicate.

[8] = test system: mcr-1-positive Salmonella; experiment: Pharmacodynamics of colistin combined with IBG in an intestinal infection model; type: in vivo, broilers
Method: Broilers were inoculated by oral gavage with 1 mL of mcr-1-positive Salmonella culture containing […]. Necropsies of broilers that had died from infection and of euthanized animals were investigated, and the ileum content samples of broilers were taken as previously described (Addwebi et al., [2014]; Wang et al., [2020]). DNA was extracted from ileum content samples using a fecal DNA extraction kit (G-Clone, Beijing, China) in accordance with the manufacturer's instructions.
Pharmacodynamic analysis of combined colistin and IBG treatment in mcr-1-positive Salmonella infection broilers was performed at 3 h after administration of the inoculum. Afterward, 32 mg/kg of IBG was combined with 2, 4, 8, or 16 mg/kg of colistin, and colistin and IBG were also tested alone at 2, 4, 8, and 16 mg/kg (n = 4 for each group). The broilers were sacrificed after 24 h of therapy, and the intestinal content samples were aseptically removed and homogenized for CFU determination. Untreated control broilers were sacrificed before colistin treatment and at 24 h after treatment.

[9] = test system: mcr-1-positive Salmonella; experiment: Dose determination from AUC/MIC targets; type: in vivo, broilers; conditions: combination: with 32 mg/kg of IBG
Text: The potential optimal dosage can be calculated using the following equation (Toutain et al., [2002], [2007]):
(3) Dose=(AUC/MIC)·MIC·CL/fu·F,
where dose (per day) is at steady state; CL is the clearance per day; AUC/MIC is the targeted endpoint for optimal efficacy in hours; MIC is the target pathogen; F is the bioavailability factor (from 0 to 1), and fu is the free fraction of the drug (from 0 to 1). In this study, fu = 1.

[10] = Pharmacokinetics of colistin in ileum contents, mcr-1-positive Salmonella infection model; type: in vivo, broilers; conditions: for AUC0-24h (intestinal colistin) / Cmax (peak intestinal colistin concentration) / T>MIC: infected broiler
Method: After 7-day acclimation, 200 infected broilers were randomly divided into five groups (n = 40/group). Pharmacokinetic analysis of colistin (2, 4, 8, and 16 mg/kg) alone and in combination (4 mg/kg colistin, 32 mg/kg IBG) was performed in mcr-1-positive Salmonella infection broilers following oral gavage. At 0.25, 0.5, 0.75, 1, 2, 4, 6, 8, 12, and 24 h after oral administration, four broilers per group were humanely killed and ileum contents (0.5 g) were sampled. The concentration of colistin in each ileum content sample was determined by validated liquid chromatography-tandem mass spectrometry (LC-MS/MS), with minor modifications. Briefly, intestinal contents (0.5 g) were extracted with 10 mL of 10% trichloroacetic acid and 10 mL of 4% lead acetate, homogenized for 1 min, ultrasonicated (30 min) and centrifuged (10,000 g, 10 min) to obtain supernatant. Thereafter, 2 mL of extraction solution was applied to HLB SPE cartridges, which were prewashed with 3 mL of methanol and 3 mL of water. The cartridges were then rinsed with 3 mL of 4% lead acetate. Afterward, the colistin was eluted with 6 mL of 20% methanol. The elute was evaporated to dryness under a gentle N2 stream at 40°C and the residue was dissolved in 0.5 mL of 0.1% formic acid for concentration analysis. The drug concentrations in intestinal contents were determined using HPLC-MS/MS. The calibration range was 0.25–5 μg/g. The intraday and interday precision levels varied from 2.1 to 9.8% and from 4.5 to 7.0%, respectively. The limit of detection (LOD) and limit of quantification (LOQ) were 0.10 and 0.25 μg/g, respectively.
The values of colistin intestinal content PK parameters in single-dose PK studies were obtained by non-compartmental analysis in Phoenix WinNonlin® 8.2 (Certara, L.P., Princeton, NJ, USA).

[11] = design: method as in Mead et al. ([2021]); conditions: oral administration, 75,000 I.U./kg, chicken; ref Mead et al. ([2021]); cited from earlier work
[12] = single gavage 16 mg/kg colistin

Compound: CC(C)Oc1ccc(/C=N/NC(=N)N/N=C/c2ccc(OC(C)C)cc2)cc1 [IBG, isopropoxy benzene guanidine]
- MIC (in combination) [1]: 16 mg/L
- MIC (in combination) [2]: 8 mg/L
- MIC (in combination) (Salmonella S226 (mcr-1)): 16 mg/L
- MIC (in combination) (Salmonella S235 (mcr-1)): 16 mg/L
- MBC (Salmonella ATCC14028): >512 mg/L
- MIC (Salmonella ATCC14028): >512 mg/L
- MIC (in combination) (Salmonella ATCC14028): 4 mg/L
- Adverse reactions in broilers [3]: without adverse reactions
- Average daily gain of broilers [3]: improved
- Diarrhea rate of broilers [3]: reduced
- HC50 (erythrocytes in mice): > 400 µg/mL
- Cytotoxicity IC50 [4]: 28 µg/mL

Compound: Colistin sulfate
- E0 ([5]; Imax model, AUC0-24h/MIC index): 0.51 log10CFU/g
- IC50 (AUC0-24h/MIC producing 50% of the maximum antibacterial effect) ([5]; Imax model, AUC0-24h/MIC index): 122.19
- Imax ([5]; Imax model, AUC0-24h/MIC index): 4.55 log10CFU/g
- AUC0-24h/MIC for 1 log10 kill ([5]; intestinal infection model): 60.66
- AUC0-24h/MIC for 2 log10 kill ([5]; intestinal infection model): 150.15
- AUC0-24h/MIC for bacteriostatic action ([5]; intestinal infection model): 15.62
- MIC of colistin ([6]; colistin alone): 2 mg/L
- MIC of colistin in the presence of IBG ([6]; in the presence of 8 mg/L of IBG): 0.25 mg/L
- Time-kill result ([7]; colistin at 4 mg/L, mcr-1-positive Salmonella): Persisting inhibition of bacterial growth
- Killing characteristic (time-kill profiles) ([7]; varying concentrations, 24 h): concentration-dependent killing
- MBC ([1]; alone): 4 mg/L
- MIC ([1]; alone): 2 mg/L
- MIC (in combination) [1]: 0.5 mg/L
- MBC ([2]; alone): 4 mg/L
- MIC ([2]; alone): 2 mg/L
- MIC (in combination) [2]: 0.25 mg/L
- MBC (Salmonella S226 (mcr-1); alone): 4 mg/L
- MIC (Salmonella S226 (mcr-1); alone): 2 mg/L
- MIC (in combination) (Salmonella S226 (mcr-1)): 0.25 mg/L
- MBC (Salmonella S235 (mcr-1); alone): 4 mg/L
- MIC (Salmonella S235 (mcr-1); alone): 2 mg/L
- MIC (in combination) (Salmonella S235 (mcr-1)): 0.25 mg/L
- MBC (Salmonella ATCC14028): 1 mg/L
- MIC (Salmonella ATCC14028): 0.5 mg/L
- MIC (in combination) (Salmonella ATCC14028): 0.125 mg/L
- Effect on broilers infected with mcr-1 positive Salmonella ([8]; single dose of 2–16 mg/kg of colistin every 24 h): not significant effect
- 3 × log10 kill effect in vivo ([8]; ≤ 16 mg/kg of colistin, monotherapy): could not achieve
- Dose of colistin required to reach 1 × log10 kill [9]: 7.54 mg/kg
- Dose of colistin required to reach 3 × log10 kill [9]: could not achieve
- Dose of colistin required to reach 4 × log10 kill [9]: could not achieve
- Dose of colistin required to reach stasis [9]: 1.94 mg/kg
- Colistin in ileum samples after 4 h ([10]; doses <16 mg/kg, after gavage): no colistin was detectable
- AUC0-24h (intestinal colistin) ([10]; single gavage 2 mg/kg colistin): 31.58 mg·h/L
- Cmax (peak intestinal colistin concentration) ([10]; single gavage 2 mg/kg colistin): 13.74 mg/L
- T>MIC ([10]; single gavage 2 mg/kg colistin): 15.11%
- AUC0-24h (intestinal colistin) ([10]; single gavage 4 mg/kg colistin): 43.79 mg·h/L
- Cmax (peak intestinal colistin concentration) ([10]; single gavage 4 mg/kg colistin): 34.37 mg/L
- T>MIC ([10]; single gavage 4 mg/kg colistin): 16.48%
- AUC0-24h (intestinal colistin) ([10]; single gavage 8 mg/kg colistin): 191.81 mg·h/L
- Cmax (peak intestinal colistin concentration) ([10]; single gavage 8 mg/kg colistin): 75.92 mg/L
- T>MIC ([10]; single gavage 8 mg/kg colistin): 16.62%
- AUC0-24h (intestinal colistin) [10, 12]: 505.29 mg·h/L
- Cmax (peak intestinal colistin concentration) [10, 12]: 151.15 mg/L
- T>MIC [10, 12]: 99.98%
- Time to colistin levels below the LOQ after dosing cessation [11]: ≤ 4 h
